According to publication PMC9292294 (Chemmedchem, 2021):

Legend:
thrombin (FIIa) = thrombin (FIIa) (Homo sapiens, UniProt P00734); experiment: Medium‐throughput screening; type: biochemical; details: read-out: Inhibition @100 nM [in MTS] FIIa
porcine trypsin = porcine trypsin (Sus scrofa, UniProt P00761); experiment: Trypsin inhibition assay, fluorogenic substrate Z‐Gly‐Gly‐Arg‐AMC; type: biochemical; details: for inhibition at 5 µM: read-out: Trypsin inhibition % at 5 μM
FXIIa = FXIIa (Homo sapiens, UniProt P00748); experiment: Medium‐throughput screening; type: biochemical; details: read-out: Inhibition @100 nM [in MTS] FXIIa
Chain of FXIIa (P00748 373-615 limits assumed, other chains not shown): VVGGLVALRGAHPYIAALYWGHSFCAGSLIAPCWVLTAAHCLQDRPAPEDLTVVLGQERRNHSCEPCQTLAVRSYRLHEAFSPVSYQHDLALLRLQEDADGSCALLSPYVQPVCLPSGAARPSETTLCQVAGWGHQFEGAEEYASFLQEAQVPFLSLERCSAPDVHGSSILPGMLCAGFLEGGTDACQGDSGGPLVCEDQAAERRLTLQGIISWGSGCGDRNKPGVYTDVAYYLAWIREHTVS

human β‐FXIIa = human β‐FXIIa (Homo sapiens, UniProt P00748); type: biochemical
Chain of human β‐FXIIa (P00748 373-615 limits assumed, other chains not shown): as above

human Factor Xa = human Factor Xa (Homo sapiens, UniProt P00742); experiment: FXa inhibition assay, fluorogenic substrate Boc‐Ile‐Glu‐Gly‐Arg‐AMC; type: biochemical
Chain of human Factor Xa (P00742 235-488 limits assumed): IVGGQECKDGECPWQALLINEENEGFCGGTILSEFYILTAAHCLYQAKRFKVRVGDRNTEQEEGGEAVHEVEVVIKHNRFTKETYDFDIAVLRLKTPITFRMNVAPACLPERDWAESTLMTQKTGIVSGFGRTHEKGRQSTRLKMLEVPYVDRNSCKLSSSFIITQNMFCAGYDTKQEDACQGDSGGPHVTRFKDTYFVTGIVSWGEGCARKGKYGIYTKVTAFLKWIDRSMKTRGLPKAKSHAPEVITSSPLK
Chain of human Factor Xa (P00742 41-179 limits assumed): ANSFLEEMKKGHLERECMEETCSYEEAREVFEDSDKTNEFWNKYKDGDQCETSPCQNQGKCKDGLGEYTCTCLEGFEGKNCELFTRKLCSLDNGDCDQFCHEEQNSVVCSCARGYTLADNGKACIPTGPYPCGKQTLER

[1] = target: human α‐thrombin (factor IIa) (Homo sapiens, UniProt P00734); type: biochemical
human pooled plasma = experiment: In vitro plasma coagulation assay, activated partial thromboplastin time; details: 200 μM, fold increase compared to DMSO
human plasma β‐FXIIa = human plasma β‐FXIIa (Homo sapiens, UniProt P00748); experiment: Mass‐shift analysis of the covalent FXIIa‐inhibitor complex by SEC/ESI‐MS; type: binding; details: 15 min incubation, enzyme:inhibitor 1 : 20
Chain of human plasma β‐FXIIa (P00748 373-615 limits assumed, other chains not shown): as the sequence (P00748 373-615 limits assumed, other chains not shown) above

Chain of porcine trypsin (P00761 9-231): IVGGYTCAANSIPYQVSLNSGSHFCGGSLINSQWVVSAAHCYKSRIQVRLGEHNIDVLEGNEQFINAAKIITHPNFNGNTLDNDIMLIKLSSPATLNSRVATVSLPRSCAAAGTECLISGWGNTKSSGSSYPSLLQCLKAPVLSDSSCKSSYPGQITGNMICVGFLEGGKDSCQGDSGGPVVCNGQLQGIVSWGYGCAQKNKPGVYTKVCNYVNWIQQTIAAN

Row | inhibition at 0.1 µM (thrombin (FIIa)) | IC50 (porcine trypsin) | inhibition at 0.1 µM (FXIIa) | IC50 (human β‐FXIIa) | IC50 (human Factor Xa) | IC50 [1] | mass shift of FXIIa (acyl moiety adduct) (human plasma β‐FXIIa) | fold improved FXIIa inhibitory activity (human β‐FXIIa; versus parent 33 h (122 nM vs. 33 nM)) | inhibition at 5 µM (porcine trypsin) | inhibition at 1 µM (human Factor Xa; read-out: FXa inhibition % at 1 μM) | SMILES | aPTT, fold (human pooled plasma)
1 | 2% | > 5 µM | 54% |  |  |  |  |  |  |  | Nc1nc(-c2ccccn2)nn1C(=O)Cc1ccccc1I [32 a, 1‐(5‐Amino‐3‐(pyridin‐2‐yl)‐1H‐1,2,4‐triazol‐1‐yl)‐2‐(2‐iodophenyl)ethan‐1‐one] | 
2 | 0% | > 5 µM | 54% | 0.073 ± 0.022 µM | > 5 µM | > 5 µM |  |  |  |  | Cc1cccc(-c2nc(N)n(C(=O)Cc3ccccc3I)n2)n1 [32 b, 1‐(5‐Amino‐3‐(6‐methylpyridin‐2‐yl)‐1H‐1,2,4‐triazol‐1‐yl)‐2‐(2‐iodophenyl)ethan‐1‐one] | 
3 | 15% | > 5 µM | 75% | 0.065 ± 0.009 µM | > 5 µM | 1.69 ± 0.167 µM |  |  |  |  | Nc1nc(-c2cnccn2)nn1C(=O)Cc1ccccc1I [32 c, 1‐(5‐Amino‐3‐(pyrazin‐2‐yl)‐1H‐1,2,4‐triazol‐1‐yl)‐2‐(2‐iodophenyl)ethan‐1‐one] | 
4 | 0% | > 5 µM | 8% | 0.716 ± 0.082 µM | > 5 µM | > 5 µM |  |  |  |  | Cc1nc(-c2cccs2)ccc1-c1nc(N)n(C(=O)Cc2ccccc2I)n1 [32 d, 1‐(5‐Amino‐3‐(2‐methyl‐6‐(thiophen‐2‐yl)pyridin‐3‐yl)‐1H‐1,2,4‐triazol‐1‐yl)‐2‐(2‐iodophenyl)‐ethan‐1‐one] | 
5 | 1% | > 5 µM | 3% | > 5 µM | > 5 µM | > 5 µM |  |  |  |  | CC(C)(C)c1nc(N)n(C(=O)Cc2ccccc2I)n1 [32 e, 1‐(5‐Amino‐3‐(tert‐butyl)‐1H‐1,2,4‐triazol‐1‐yl)‐2‐(2‐iodophenyl)ethan‐1‐one] | 
6 | 10% | > 5 µM | 73% |  |  |  |  |  |  |  | Nc1nc(-c2ccccn2)nn1C(=O)[C@H]1CCCc2ccccc21 [33 a, (S)‐(5‐Amino‐3‐(pyridin‐2‐yl)‐1H‐1,2,4‐triazol‐1‐yl)(1,2,3,4‐tetrahydro‐naphthalen‐1‐yl)‐methanone] | 
7 | 5% | > 5 µM | 36% | 0.214 ± 0.035 µM | > 5 µM | 0.819 ± 0.015 µM |  |  |  |  | Cc1cccc(-c2nc(N)n(C(=O)[C@H]3CCCc4ccccc43)n2)n1 [33 b, (S)‐(5‐Amino‐3‐(6‐methylpyridin‐2‐yl)‐1H‐1,2,4‐triazol‐1‐yl)(1,2,3,4‐tetrahydronaphthalen‐1‐yl)‐methanone] | 
8 | 36% | > 5 µM | 80% | 0.106 ± 0.013 µM | > 5 µM | 0.143 ± 0.005 µM |  |  |  |  | Nc1nc(-c2cnccn2)nn1C(=O)[C@H]1CCCc2ccccc21 [33 c, (S)‐(5‐Amino‐3‐(pyrazin‐2‐yl)‐1H‐1,2,4‐triazol‐1‐yl)(1,2,3,4‐tetrahydronaphthalen‐1‐yl)methanone] | 2.7 fold
9 | 0% | > 5 µM | 26% | 1.14 ± 0.334 µM | > 5 µM | > 5 µM |  |  |  |  | Cc1nc(-c2cccs2)ccc1-c1nc(N)n(C(=O)[C@H]2CCCc3ccccc32)n1 [33 d, (S)‐(5‐Amino‐3‐(2‐methyl‐6‐(thiophen‐2‐yl)pyridin‐3‐yl)‐1H‐1,2,4‐triazol‐1‐yl)(1,2,3,4‐tetrahydro‐naphthalen‐1‐yl)methanone] | 
10 | 1% | > 5 µM | 0% | > 5 µM | > 5 µM | > 5 µM |  |  |  |  | CC(C)(C)c1nc(N)n(C(=O)[C@H]2CCCc3ccccc32)n1 [33 e, (S)‐(5‐Amino‐3‐(tert‐butyl)‐1H‐1,2,4‐triazol‐1‐yl)(1,2,3,4‐tetrahydronaphthalen‐1‐yl)methanone] | 
11 | 0% | > 5 µM | 29% | ~2 µM | > 5 µM | > 5 µM |  |  |  |  | Nc1nc(-c2ccc(F)cc2)nn1C(=O)[C@H]1CCCc2ccccc21 [33 f, (S)‐(5‐Amino‐3‐(4‐fluorophenyl)‐1H‐1,2,4‐triazol‐1‐yl)(1,2,3,4‐tetrahydronaphthalen‐1‐yl)‐methanone] | 
12 | 5% | > 5 µM | 94% | 0.033 ± 0.001 µM | > 5 µM | 1.01 ± 0.155 µM | 158.2 Da |  |  |  | Nc1nc(-c2ccc3ccccc3n2)nn1C(=O)[C@H]1CCCc2ccccc21 [33 g, (S)‐(5‐Amino‐3‐(quinolin‐2‐yl)‐1H‐1,2,4‐triazol‐1‐yl)(1,2,3,4‐tetrahydronaphthalen‐1‐yl)‐methanone] | 
13 | 0% | > 5 µM | 81% | 0.122 ± 0.035 µM | > 5 µM | > 5 µM |  |  |  |  | Cc1nc2ccccc2nc1-c1nc(N)n(C(=O)[C@H]2CCCc3ccccc32)n1 [33 h, (S)‐(5‐Amino‐3‐(3‐methylquinoxalin‐2‐yl)‐1H‐1,2,4‐triazol‐1‐yl)(1,2,3,4‐tetrahydronaphthalen‐1‐yl)methanone] | 
14 | 62% | > 5 µM | 14% | 0.547 ± 0.058 µM | > 5 µM | 0.038 ± 0.009 µM |  |  |  |  | Nc1nc(-c2nccc3ccccc23)nn1C(=O)[C@H]1CCCc2ccccc21 [33 i, (S)‐(5‐Amino‐3‐(isoquinolin‐1‐yl)‐1H‐1,2,4‐triazol‐1‐yl)(1,2,3,4‐tetrahydronaphthalen‐1‐yl)‐methanone] | 
15 | 1% | > 5 µM | 8% | 1.52 ± 0.182 µM | > 5 µM | 5.7 ± 0.33 µM |  |  |  |  | Nc1nc(-c2ccccc2C(=O)N2CCCCC2)nn1C(=O)[C@H]1CCCc2ccccc21 [33 j, (S)‐(2‐(5‐Amino‐1‐(1,2,3,4‐tetrahydronaphthalene‐1‐carbonyl)‐1H‐1,2,4‐triazol‐3‐yl)phenyl)‐(piperidin‐1‐yl)methanone] | 
16 |  |  |  | 0.033 ± 0.007 µM | > 5 µM | > 5 µM |  | 3.7 fold | 32% |  | Nc1nc(-c2cnc3ccccc3n2)nn1C(=O)[C@H]1CCCc2ccccc21 [39 a, (S)‐(5‐Amino‐3‐(quinoxalin‐2‐yl)‐1H‐1,2,4‐triazol‐1‐yl)(1,2,3,4‐tetrahydronaphthalen‐1‐yl)‐methanone] | 
17 |  | > 5 µM |  |  | > 5 µM | > 5 µM |  |  |  |  | Nc1nc(-c2cnc3ccccc3n2)nn1C(=O)c1cccc2ccccc12 [39 b, (5‐Amino‐3‐(quinoxalin‐2‐yl)‐1H‐1,2,4‐triazol‐1‐yl)(naphthalen‐1‐yl)methanone] | 
18 |  | > 5 µM |  | 0.013 ± 0.002 µM | > 5 µM | 0.124 ± 0.01 µM |  |  |  |  | Nc1nc(-c2ccc3ccccc3n2)nn1C(=O)c1ccccc1 [40 a, (5‐Amino‐3‐(quinoline‐2‐yl)‐1H‐1,2,4‐triazol‐1‐yl)(phenyl)methanone] | 
19 |  | > 5 µM |  | 0.008 ± 0.002 µM |  | 0.348 ± 0.015 µM |  |  |  |  | Nc1nc(-c2ccc3ccccc3n2)nn1C(=O)c1cccc2ccccc12 [40 b, (5‐Amino‐3‐(quinolin‐2‐yl)‐1H‐1,2,4‐triazol‐1‐yl)(naphthalen‐1‐yl)methanone] | 
20 |  | > 5 µM |  | 0.236 ± 0.005 µM | > 5 µM | 0.063 ± 0.001 µM |  |  |  |  | Nc1nc(-c2nccc3ccccc23)nn1C(=O)c1ccccc1 [41 a, (5‐Amino‐3‐(isoquinolin‐1‐yl)‐1H‐1,2,4‐triazol‐1‐yl)(phenyl)methanone] | 
21 |  | > 5 µM |  | > 5 µM | > 5 µM |  |  |  |  |  | Nc1nc(-c2nccc3ccccc23)nn1C(=O)c1ccc2ccccc2c1 [41 c, (5‐Amino‐3‐(isoquinolin‐1‐yl)‐1H‐1,2,4‐triazol‐1‐yl)(naphthalen‐2‐yl)methanone] | 
22 | 91% |  | -1% | > 5 µM |  |  |  |  | 59% | 34% | [H]/N=C(/N)c1ccc(NCc2nc3cc(C(=O)N(CCC(=O)O)c4ccccn4)ccc3n2C)cc1 [Dabigatran, reference compound] | 
23 | 1% | > 5 µM | -1% | > 5 µM |  |  |  |  |  |  | O=C(NC[C@H]1CN(c2ccc(N3CCOCC3=O)cc2)C(=O)O1)c1ccc(Cl)s1 [Rivaroxaban, reference compound] | 
